Format in all cases: functional
Common to all, as to conditions: route oral

In assay [1] the test system is Mus musculus. Nature of the assay: Antiexploratory activity (EXPL) of mice determined by an antimex activity meter, 100 mg/kg of dose was administered perorally; No inhibition.
Assay [2] deals with Mus musculus. Nature of the assay: Antireserpine activity (RES) of mice after peroral administration of 100 mg/kg of compound; No inhibition.
The test system of assay [3] is Mus musculus. Description: Antitremorine activity(TRM) of mice after peroral administration of 100 mg/kg of compound; No inhibition.
Assay [4] concerns Mus musculus. Description: Antimaximal electroshock seizure (MES) activity in mice after peroral administration of 100 mg/kg of compound; 0/5. In general terms: Protection in the maximal electroshock model is a classic sign of anticonvulsant action.

Some results are limits rather than exact numbers.

The term inhibition in vivo denotes the percentage by which the read-out fell short of the control. A low value points to little suppression. On to `Cl.Cl.OCCN1CCN(C2=Nc3cc(Cl)ccc3CC=C2c2ccc(Cl)cc2)CC1`, for which the inhibition in vivo at 100 mg/kg in the assay with Mus musculus [1], with Mus musculus [2] and in the assay on Mus musculus [3] was less than 30% throughout. The same molecule displayed an Activity in the assay with Mus musculus [4] of 0.

For the molecule `O=C(CCN1CCN(C2=Nc3ccc(Br)cc3CC=C2c2ccccc2)CC1)c1ccccc1`, the inhibition in vivo at 100 mg/kg with Mus musculus [1], in the assay with Mus musculus [2] and in the assay on Mus musculus [3] was less than 30% each time. In the assay on Mus musculus [4], this molecule came in with an Activity of 0.

In the case of `COc1ccc(CN2CCN(C3=Nc4ccc(Br)cc4CC=C3c3ccccc3)CC2)cc1`, the inhibition in vivo at 100 mg/kg in the assay with Mus musculus [1], with Mus musculus [2] and in the assay with Mus musculus [3] was less than 30% throughout. For the same molecule, in the assay on Mus musculus [4], the Activity is listed as 0.

As for `Clc1ccccc1C1=CCc2ccccc2N=C1N1CCNCC1.O=C(O)/C=C/C(=O)O`, the inhibition in vivo at 100 mg/kg in the assay on Mus musculus [1], in the assay with Mus musculus [2] and in the assay with Mus musculus [3] was less than 30% each time. The same molecule gave an Activity in the assay on Mus musculus [4] of 0.

As to `NC(=O)N1CCN(C2=Nc3ccc(Cl)cc3CC=C2c2ccccc2)CC1`, the inhibition in vivo at 100 mg/kg in the assay with Mus musculus [1], in the assay with Mus musculus [2] and with Mus musculus [3] was less than 30% throughout. Moreover, in the assay with Mus musculus [4], the Activity stood at 0.

`CC(C)c1ccc2c(c1)CC=C(c1ccccc1)C(N1CCN(CCO)CC1)=N2.Cl.Cl`: the inhibition in vivo at 100 mg/kg with Mus musculus [1], in the assay on Mus musculus [2] and in the assay on Mus musculus [3] was less than 30% in each case. In the assay on Mus musculus [4], this molecule registered an Activity of 0.

`O=C(O)/C=C/C(=O)O.OCCN1CCN(C2=Nc3ccccc3CC=C2c2cccc(C(F)(F)F)c2)CC1`: the inhibition in vivo at 100 mg/kg with Mus musculus [1] and in the assay with Mus musculus [3] was less than 30% each time. Besides, the Activity with Mus musculus [4] is recorded as 0.

As for `Cc1ccc(C2=CCc3ccccc3N=C2N2CCN(CCO)CC2)cc1.Cl.Cl`, the inhibition in vivo at 100 mg/kg in the assay on Mus musculus [1], in the assay with Mus musculus [2] and in the assay on Mus musculus [3] was less than 30% each time. The molecule also registered an Activity with Mus musculus [4] of 0.

As to `CN1CCN(C2=Nc3ccc(Br)cc3CC=C2c2ccc(Cl)cc2)CC1.Cl.Cl`, the inhibition in vivo at 100 mg/kg in the assay with Mus musculus [1], in the assay on Mus musculus [2] and in the assay on Mus musculus [3] was less than 30% throughout. In the assay with Mus musculus [4], this molecule returned an Activity of 0.

Take `Clc1ccc(C2=CCc3ccccc3N=C2N2CCNCC2)cc1.O=C(O)/C=C/C(=O)O`: the inhibition in vivo at 100 mg/kg with Mus musculus [1], in the assay with Mus musculus [2] and in the assay on Mus musculus [3] was less than 30% throughout. In the assay on Mus musculus [4], this molecule yielded an Activity of 0.

As to `CCCc1ccc2c(c1)CC=C(c1ccccc1)C(N1CCN(C)CC1)=N2.Cl.Cl`, the inhibition in vivo at 100 mg/kg with Mus musculus [1] and in the assay with Mus musculus [2] was less than 30% throughout. The molecule further showed an Activity with Mus musculus [4] of 0.

As for `Brc1ccc2c(c1)CC=C(c1ccccc1)C(N1CCN(c3ccccc3)CC1)=N2`, the inhibition in vivo at 100 mg/kg in the assay on Mus musculus [1], in the assay on Mus musculus [2] and in the assay on Mus musculus [3] was less than 30% in each case. This molecule came in with an Activity in the assay on Mus musculus [4] of 0.

Take `C1=C(c2ccccc2)C(N2CCNCC2)=Nc2ccccc2C1.O=C(O)/C=C/C(=O)O`: the inhibition in vivo at 100 mg/kg in the assay on Mus musculus [1], in the assay on Mus musculus [2] and in the assay with Mus musculus [3] was less than 30% in each case. This molecule also gave an Activity in the assay on Mus musculus [4] of 0.

`C1=C(c2ccccc2)C(N2CCN(c3ccccc3)CC2)=Nc2ccccc2C1`: the inhibition in vivo at 100 mg/kg in the assay with Mus musculus [1], with Mus musculus [2] and with Mus musculus [3] was less than 30% in each case. For the same molecule, in the assay with Mus musculus [4], the Activity was 0.

For the molecule `CN1CCN(C2=Nc3ccccc3CC=C2c2cccc(C(F)(F)F)c2)CC1.O=C(O)/C=C/C(=O)O`, the inhibition in vivo at 100 mg/kg in the assay on Mus musculus [1] and with Mus musculus [3] was less than 30% each time. In the assay with Mus musculus [4], this molecule gave an Activity of 0.

For `C1=C(c2ccccc2)C(N2CCN(Cc3ccccc3)CC2)=Nc2ccccc2C1`, the inhibition in vivo at 100 mg/kg in the assay on Mus musculus [1] and in the assay on Mus musculus [3] was less than 30% in each case. The molecule also had an Activity in the assay with Mus musculus [4] of 0.

(Values after ChEMBL document CHEMBL1124216, “A novel class of potential central nervous system agents. 3-Phenyl-2-(1-piperazinyl)-5H-1-benzazepines” (1988).)
